Assays:
[1] = In vitro release of stem cell recruitment factor (SP) and VP from hydrogels; format: physicochemical; settings: physiological saline, 37° C., 100 rpm, 28 days; CHHA+SP and CHHA-VP+SP hydrogels
Method: First, an HA+VP solution was prepared by simply mixing VP with the HA solution prepared in Example 3 at a concentration of 320 μg/mL, and SP, which is a stem cell recruitment factor, was mixed with each of the HA solution and HA-VP solution at a concentration of 2 μg/mL to prepare an HA+SP solution and HA−VP+SP solution, respectively.
Next, 100 μL of the CH solution and 100 μL of the HA+VP solution were mixed in a vial to prepare 200 μL of a CHHA+VP hydrogel, and 100 μL of the CH solution and 100 μL of the HA-VP solution were mixed in a vial to prepare 200 μL of a CHHA-VP hydrogel.
In addition, 100 μL of the CH solution and 100 μL of HA+SP solution were mixed in a vial to prepare 200 μL of a CHHA+SP hydrogel, and 100 μL of the CH solution and 100 μL of the HA-VP+SP solution were mixed in a vial to prepare 200 μL of a CHHA-VP+SP hydrogel.
3 mL of a physiological saline was placed in each vial and stored in an incubator at 100 rpm and 37° C., and after taking 1 mL of the physiological saline from the vial at a predetermined time, 1 mL of a new physiological saline was added to the vial, and it was carried it out for 28 days to conduct a release experiment.

[2] = system: human-derived mesenchymal stem cells (hMSCs); experiment: SP's ability to recruit stem cells (trans well migration); format: cell-based
Method: First, human-derived mesenchymal stem cells (hMSCs) were labeled with PKH 26 dye (Sigma, USA) and then dispensed in the upper chamber (8.0 μm pore size) of a 24-well trans well plate (SPL, Korea) to be 5×10^4 cells. After culturing in the upper chamber for 48 hours using serum-free DMEM (Dubelco's modified eagle medium, Gibco, USA) medium, DMEM containing 1 μg/mL SP and 1% FBS (fetal bovine serum, Gibco, USA) was added to the bottom well, and the medium was replaced every 3 days, and the hMSCs that migrated to the bottom well were observed using a fluorescence microscope (Olympus, Japan). As a control group, DMEM (including 1% FBS) without SP was added to the bottom well and observed.

[3] = 1 μg/mL SP in bottom well, DMEM with 1% FBS

Substance P [SP]
release of SP from hydrogel [1]: release of SP occurred regardless of the chemical introduction of VP
Migration rate of hMSC [2, 3]: 1.9 × 10^3 cells/day
Rate constant [2, 3]: -0.49 day⁻¹
cells migrated to the lower side ([2]; SP present compared with SP absent): more cells migrated to the lower side
Relative migration rate ([2]; SP relative to Cont (no SP)): 1.7
